This is an account of results in article PMC3726482 (PLoS ONE, 2013).

Common to all, as to type: biochemical
The target of one assay is T1, EF (edema factor) (Bacillus anthracis, UniProt P40136).
T1 construct: gene cya
Conditions: read-out: EF / KM.

Assay [1] addresses T2, CyaA-N (Bordetella pertussis, UniProt P0DKX7).
T2 construct: gene cya; catalytic domain, amino acids 1 to 373; plasmid pExCyaA-N; purified from E. coli; assayed with calf brain calmodulin; with Calmodulin
Conditions: read-out: CyaA-N / KM.

Assay [2] addresses T2, CyaA-N.

T2 sequence (P0DKX7 whole entry, looked up, the tested form may be a part): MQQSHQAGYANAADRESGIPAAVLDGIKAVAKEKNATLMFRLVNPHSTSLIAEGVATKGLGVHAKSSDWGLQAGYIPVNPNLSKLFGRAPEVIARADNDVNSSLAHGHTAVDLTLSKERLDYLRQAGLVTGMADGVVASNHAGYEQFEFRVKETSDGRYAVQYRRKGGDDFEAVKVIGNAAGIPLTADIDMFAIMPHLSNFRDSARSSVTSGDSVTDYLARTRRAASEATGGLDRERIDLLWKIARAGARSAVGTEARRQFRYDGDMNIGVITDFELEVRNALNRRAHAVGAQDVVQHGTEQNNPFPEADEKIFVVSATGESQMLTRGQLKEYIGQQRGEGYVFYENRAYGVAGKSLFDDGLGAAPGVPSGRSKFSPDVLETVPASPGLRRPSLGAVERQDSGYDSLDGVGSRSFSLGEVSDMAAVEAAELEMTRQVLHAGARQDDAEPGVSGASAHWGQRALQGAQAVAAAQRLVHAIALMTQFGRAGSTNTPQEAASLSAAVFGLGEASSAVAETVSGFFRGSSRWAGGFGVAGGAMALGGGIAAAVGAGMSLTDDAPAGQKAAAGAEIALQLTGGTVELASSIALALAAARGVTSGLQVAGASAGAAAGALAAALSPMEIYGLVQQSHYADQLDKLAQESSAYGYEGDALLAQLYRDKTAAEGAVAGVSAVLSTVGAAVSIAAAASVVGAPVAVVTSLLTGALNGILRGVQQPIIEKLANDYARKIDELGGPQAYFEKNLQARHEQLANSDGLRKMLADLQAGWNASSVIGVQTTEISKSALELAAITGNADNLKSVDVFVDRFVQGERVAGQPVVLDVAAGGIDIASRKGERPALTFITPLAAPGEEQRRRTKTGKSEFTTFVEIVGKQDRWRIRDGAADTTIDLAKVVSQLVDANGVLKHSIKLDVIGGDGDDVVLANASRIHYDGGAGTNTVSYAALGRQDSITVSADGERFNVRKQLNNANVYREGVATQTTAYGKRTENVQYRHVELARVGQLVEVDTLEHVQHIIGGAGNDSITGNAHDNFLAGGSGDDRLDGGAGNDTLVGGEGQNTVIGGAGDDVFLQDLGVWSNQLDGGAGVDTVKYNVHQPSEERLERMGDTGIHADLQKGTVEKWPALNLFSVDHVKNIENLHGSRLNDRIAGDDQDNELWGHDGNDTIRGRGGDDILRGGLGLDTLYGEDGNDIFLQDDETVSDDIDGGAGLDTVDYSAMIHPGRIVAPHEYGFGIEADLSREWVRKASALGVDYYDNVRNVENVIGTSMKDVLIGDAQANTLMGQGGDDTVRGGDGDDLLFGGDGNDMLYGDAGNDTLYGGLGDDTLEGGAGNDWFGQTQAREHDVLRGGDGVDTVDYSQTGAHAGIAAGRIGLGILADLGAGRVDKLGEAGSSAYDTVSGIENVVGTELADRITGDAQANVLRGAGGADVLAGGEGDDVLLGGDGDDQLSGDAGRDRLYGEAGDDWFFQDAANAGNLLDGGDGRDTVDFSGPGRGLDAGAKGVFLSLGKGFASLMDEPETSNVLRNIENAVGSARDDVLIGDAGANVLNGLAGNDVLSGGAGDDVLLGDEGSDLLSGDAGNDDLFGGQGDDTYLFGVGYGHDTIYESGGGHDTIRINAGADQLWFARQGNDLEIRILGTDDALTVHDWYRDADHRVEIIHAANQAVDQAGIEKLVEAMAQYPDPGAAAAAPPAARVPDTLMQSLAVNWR
T1 sequence (P40136 whole entry, looked up): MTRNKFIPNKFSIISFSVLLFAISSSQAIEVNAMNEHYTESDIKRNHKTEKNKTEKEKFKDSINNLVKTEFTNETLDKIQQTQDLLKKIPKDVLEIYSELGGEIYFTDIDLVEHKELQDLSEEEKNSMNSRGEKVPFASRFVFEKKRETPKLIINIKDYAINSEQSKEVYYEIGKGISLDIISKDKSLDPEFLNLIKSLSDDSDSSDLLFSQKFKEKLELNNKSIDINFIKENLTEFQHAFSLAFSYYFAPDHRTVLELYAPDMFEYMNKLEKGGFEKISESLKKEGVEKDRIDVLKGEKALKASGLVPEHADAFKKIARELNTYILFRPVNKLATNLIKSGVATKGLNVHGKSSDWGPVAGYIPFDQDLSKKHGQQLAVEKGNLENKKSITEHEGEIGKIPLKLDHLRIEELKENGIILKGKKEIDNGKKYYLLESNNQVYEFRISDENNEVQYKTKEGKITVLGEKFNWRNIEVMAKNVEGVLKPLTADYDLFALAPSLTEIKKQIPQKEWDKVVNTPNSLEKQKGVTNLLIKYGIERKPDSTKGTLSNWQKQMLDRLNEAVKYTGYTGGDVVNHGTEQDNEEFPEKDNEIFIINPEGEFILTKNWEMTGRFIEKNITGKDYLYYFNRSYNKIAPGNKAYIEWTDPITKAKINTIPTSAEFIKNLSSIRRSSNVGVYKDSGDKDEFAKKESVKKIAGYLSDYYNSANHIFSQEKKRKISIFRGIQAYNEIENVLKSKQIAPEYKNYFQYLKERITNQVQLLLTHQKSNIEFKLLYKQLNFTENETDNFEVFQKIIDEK

`O=P(O)(O)OP(=O)(O)OP(=O)(O)OC[C@H]1O[C@@H](n2cnc3c(O)ncnc32)[C@H](O)[C@@H]1O` [ITP]: the Km on EF (edema factor) was 507 ± 108 µM; on CyaA-N [1] it was 329 ± 44 µM.

For the compound `Nc1ccn([C@@H]2O[C@H](COP(=O)(O)OP(=O)(O)OP(=O)(O)O)[C@@H](O)[C@H]2O)c(=O)n1` [CTP], the Km is 367 ± 116 µM on EF (edema factor) and 475 ± 139 µM on CyaA-N [1].

Regarding `Cc1cn([C@H]2C[C@H](O)[C@@H](COP(=O)(O)OP(=O)(O)OP(=O)(O)O)O2)c(=O)[nH]c1=O` [TTP], the Km at CyaA-N [1] came to 19 ± 5 µM. Further, the “CyaA-N / KM” value on CyaA-N [2] turned out to be 1332 ± 365 µM.

Take `O=c1ccn([C@@H]2O[C@H](COP(=O)(O)OP(=O)(O)OP(=O)(O)O)[C@@H](O)[C@H]2O)c(=O)[nH]1` [UTP]: the Km at EF (edema factor) was found to be 792 ± 299 µM; at CyaA-N [1], 599 ± 59 µM.

For the compound `Nc1ncnc2c1ncn2[C@@H]1O[C@H](COP(=O)(O)OP(=O)(O)OP(=O)(O)O)[C@@H](O)[C@H]1O` [ATP], the Km worked out at 78.1 ± 8.7 µM on EF (edema factor) and 171 ± 22.8 µM on CyaA-N [1].

On to `O=c1[nH]c(=O)c2ncn([C@@H]3O[C@H](COP(=O)(O)OP(=O)(O)OP(=O)(O)O)[C@@H](O)[C@H]3O)c2[nH]1` [XTP], for which, at CyaA-N [1], the Km amounted to 37 ± 7 µM. The “CyaA-N / KM” value at CyaA-N [2] is 309 ± 57 µM.

For `Nc1nc2c(ncn2[C@@H]2O[C@H](COP(=O)(O)OP(=O)(O)OP(=O)(O)O)[C@@H](O)[C@H]2O)c(=O)[nH]1` [GTP], the values for the Km at EF (edema factor) and on CyaA-N [1] were 85 ± 13 µM and 191 ± 25 µM, respectively.
